Reference: paper PMC10650850, “Discovery, Structure–Activity Relationship and In Vitro Anticancer Activity of Small-Molecule Inhibitors of the Protein–Protein Interactions between AF9/ENL and AF4 or DOT1L” (Cancers, 2023)
Entries after “also recorded” stand apart in the source; their conditions may differ. Structures can show the parent of a compound that is named as a salt.

Tests used:
AF9-DOT1L interaction [1] = biological target: T1, AF9-DOT1L interaction (Homo sapiens, UniProt P42568); assay: AlphaLisa assay, AF9-DOT1L interaction; type: binding; conditions: for IC50: read-out: IC50 (μM) against the AF9-DOT1L interaction; for inhibition at 5 µM: compound at 5 μM, read-out: % Inhibition at 5 μM against the AF9-DOT1L interaction
T1 construct: human AF9 AHD domain (475–568); made in house; host or cells: E. coli BL21(DE3)
T1 sequence (P42568 475-568): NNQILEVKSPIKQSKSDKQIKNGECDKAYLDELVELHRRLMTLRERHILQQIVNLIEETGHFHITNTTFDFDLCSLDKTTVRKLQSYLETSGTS
In short: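 AlphaLisa proximity assay using MBP-tagged human AF9 AHD (475–568, 5 nM) on anti-MBP acceptor beads and biotinylated DOT1L peptide (40 nM) on streptavidin donor beads, in PBS with 0.5% BSA, pH 7.5. Compound titrated; IC50 from dose-response fits of 3 independent experiments.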

[2] = biological target: AF9/ENL-DOT1L interaction; design: method as in PMID 30258537, PMID 35612819; conditions: printed in Chart 1; ref [33],[34]; cited from earlier work
ENL-AF4 = biological target: T2, ENL-AF4 (Homo sapiens, UniProt Q03111); assay: AlphaLisa assay, ENL-AF4 interaction; type: binding; conditions: ENL AHD, AF4 peptide
T2 construct: ENL AHD domain (489–559); made in house; host or cells: E. coli BL21(DE3)
T2 sequence (Q03111 489-559): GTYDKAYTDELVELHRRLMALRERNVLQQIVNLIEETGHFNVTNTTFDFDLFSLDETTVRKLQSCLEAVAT
Experimental: (§1) Transcription cofactor AF4, which is the most frequent (~35%) fusion protein in MLL1-r leukemia, is another binding partner of AF9/ENL [35, 36, 37]. The AF9/ENL-AF4 interactions are essential for the formation of SEC, which causes aberrant gene expression in MLL-r leukemia and other AMLs. Using our previously developed AlphaLisa assays, selected compounds were tested for their ability to inhibit the PPIs between AF9 or ENL and AF4.
(§2) The cDNA for the human AF9 AHD domain (475–568) and ENL AHD domain (489–559) was synthesized (by Genscript, Piscataway, NJ, USA) and inserted into the pMAL c5X expression plasmid. The DOT1L peptide (Biotin-AHX-[…]) and AF4 peptide (Biotin-AHX-[…]) for the Alpha assay were purchased from Genscript.
(§3) Alpha assays were developed in our previous publication, using a Perkin-Elmer AlphaLisa anti-MBP kit, which contains streptavidin donor beads and anti-MBP acceptor beads. Briefly, the assay was performed using a MBP-protein (5 nM), a biotinylated peptide (40 nM), and increasing concentrations of a compound in 25 µL buffer (PBS with 0.5% BSA, pH 7.5) in 384-well plates according to the manufacturer’s protocol and measured with a Tecan SPARK microplate reader. Data were imported into Prism (version 5.0), and IC50 values from 3 independent experiments with standard deviation were obtained by using a standard dose-response curve fitting.

HoxA9, Meis1 and Myc = assay: RT-qPCR of MLL target genes in Molm-13 cells; type: cell-based; conditions: 1 and 5 µM, 4 days
From the text: The major function of the SEC is to promote transcription elongation for its bound genes. Because of the high affinity of the PPIs between AF9/ENL and AF4, onco-MLL (e.g., MLL-AF4 or MLL-AF9/-ENL) recruits SEC to MLL target genes, facilitates their expression, and eventually causes leukemia initiation. Next, we investigated whether selected inhibitors of these PPIs can inhibit the expression of HoxA9, Meis1 and Myc, which are MLL target genes and their high expression is characteristic of MLL-r leukemia. In addition, high expression of Myc is also observed in a broad range of AMLs and other cancers and is considered a driving factor for oncogenesis. To this end, RNAs from the control and compound-treated Molm-13 cells (harboring MLL-AF9) were extracted and subjected to quantitative PCR. […] RNA extraction and RT-qPCR were performed following our previous method. 10^5 cells/mL were incubated with a compound for 4 days and the RNA was extracted using an RNeasy mini kit (#74104, Qiagen, Germantown, MD, USA). 100–1000 ng of total RNA was reverse transcribed using iScript™ Reverse Transcription Supermix (Bio-Rad, Hercules, CA, USA), using the manufacturer’s protocol. Quantitative real-time PCR was carried out using Fast SYBR Green Master Mix (Applied Biosystems, Waltham, MA, USA) according to the manufacturer’s instructions. Measurements were performed in triplicate using GAPDH as the reference gene. Real-time PCR was performed using the Biosystems Step One Plus detection system. The following sequences of primers were used: […]

[3] = tested on: panel of MLL-r leukemia and other cancer cells; assay: Antiproliferation assay (XTT), panel of MLL-r leukemia and other cancer cells; type: cell-based; conditions: MV4;11, Molm-13, NB4, HL60 and Hela cells, 7 days
Experimental: (§4) The antitumor activity of selected compounds was evaluated against the proliferation of a panel of MLL-r leukemia and other cancer cells. MV4;11 and Molm-13 leukemia cells contain MLL-AF4 and MLL-AF9 fusion oncogenes, respectively. NB4 and HL60 are AML cells without MLL translocation. Hela (cervical cancer) is a solid tumor cell line. […] The anti-proliferation activity of these compounds against other AML cells (i.e., NB4 and HL60) might be due to their inhibition of SEC-mediated gene expression (e.g., Myc), as observed in our previous studies.
(§5) Proliferation inhibition assays were performed using an XTT assay kit (Biotium, Fremont, CA, USA) following our previous methods. The antiproliferation EC50 values were determined using Prism 5 and the reported results were the mean values of at least three independent experiments. The incubation time for all compounds was 7 days.

AF9-DOT1L interaction [4] = biological target: T1, AF9-DOT1L interaction; assay: Pull-down assay of AF9 AHD with DOT1L peptide-coated beads; type: binding; conditions: for remaining activity at 10 µM / remaining activity at 50 µM: Western blot, read-out: AF9 AHD % Control; for remaining activity at 10 µM: compound 10 μM; for remaining activity at 50 µM: compound 50 μM; for Effect on AF9 AHD bound to DOT1L peptide-coated beads (in words): up to 50 µM
From the text: A pull-down assay was used to confirm that the strong inhibitors could disrupt the AF9-DOT1L interaction. Streptavidin agarose beads coated with biotinylated DOT1L peptide were used to pull-down the protein AF9 AHD in the solution, followed by thorough washing, SDS-PAGE (sodium dodecyl sulfate-polyacrylamide gel electrophoresis) and Western blotting to visualize and quantitate the protein. […] This alternative, non-optical method confirmed that compounds 24 and 50 can inhibit the PPI between AF9 and DOT1L.
The pull-down assays were conducted following our previous method. Briefly, the biotinylated DOT1L peptide (0.25 mg/mL) was incubated with streptavidin agarose beads (20 μL) in PBS containing 0.1% Triton X-100 (400 µL) for 3h to yield, after washing, DOT1L-coated beads. MBP-tagged AF9 AHD (0.2 µM, 400 µL) was pre-incubated with a compound for 1 h before adding to the beads. After 6 h incubation at 4 °C, the beads were collected, thoroughly washed, and subjected to SDS-PAGE and analyzed by Western blot using an MBP antibody (#2396, Cell signaling, Danvers, MA, USA).

NB4 = assay: Antiproliferation assay (XTT), NB4; type: cell-based; conditions: Homo sapiens, NB-4, 168 h, 7 days incubation, read-out: Antitumor activity EC50, NB4;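 note: EC50 values in Micromolar not Nanomolar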
Experimental: as §4, §5

AF9-AF4 = biological target: T3, AF9-AF4 (Homo sapiens, UniProt P42568); assay: AlphaLisa assay, AF9-AF4 interaction; type: binding; conditions: AF9 AHD, AF4 peptide
T3 construct: human AF9 AHD domain (475–568); made in house; host or cells: E. coli BL21(DE3)
T3 sequence (P42568 475-568): T1 sequence (P42568 475-568)
Experimental: as §1, §2, §3

MV4;11 = assay: Antiproliferation assay (XTT), MV4;11; type: cell-based; conditions: Homo sapiens, MV4-11, 168 h, 7 days incubation, read-out: Antitumor activity EC50, MV4;11;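 note: EC50 values in Micromolar not Nanomolar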
Experimental: as §4, §5

Molm13 = assay: Antiproliferation assay (XTT), Molm-13; type: cell-based; conditions: Homo sapiens, MOLM-13, 168 h, 7 days incubation, read-out: Antitumor activity EC50, Molm13;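 note: EC50 values in Micromolar not Nanomolar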
Experimental: as §4, §5

HL60 = assay: Antiproliferation assay (XTT), HL60; type: cell-based; conditions: Homo sapiens, HL-60, 168 h, 7 days incubation, read-out: Antitumor activity EC50, HL60;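 note: EC50 values in Micromolar not Nanomolar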
Experimental: as §4, §5

Hela = assay: Antiproliferation assay (XTT), Hela; type: cell-based; conditions: Homo sapiens, HeLa, 168 h, 7 days incubation, read-out: Antitumor activity EC50, Hela
Experimental: as §4, §5

[5] = MBP-protein 5 nM, biotinylated peptide 40 nM, 3 independent experiments with standard deviation

Row | IC50 (ENL-AF4) [µM] | IC50 ENL-AF4 (ENL-AF4) | remaining activity at 10 µM (AF9-DOT1L interaction [4]) [%] | remaining activity at 50 µM (AF9-DOT1L interaction [4]) [%] | IC50 (μM) against the AF9-DOT1L interaction (AF9-DOT1L interaction [1]; [5]) | IC50 (AF9-AF4) [µM] | IC50 AF9-AF4 (AF9-AF4) | EC50 (MV4;11) [µM] | EC50 (Molm13) [µM] | EC50 (HL60) [µM] | EC50 (Hela) [µM] | SMILES | IC50 (AF9-DOT1L interaction [1]; [5]) [µM] | inhibition at 5 µM (AF9-DOT1L interaction [1]) [%] | Ki [2] [µM] | Expression of MLL target genes HoxA9, Meis1 and Myc (in words) (HoxA9, Meis1 and Myc) | Inhibition of tumor cell proliferation (in words) [3] | Effect on AF9 AHD bound to DOT1L peptide-coated beads (in words) (AF9-DOT1L interaction [4]) | EC50 (NB4) [µM]
1 |  |  |  |  |  |  |  |  |  |  |  | N#Cc1cccc(-c2ccc3cc(C(=O)NCC4CCNCC4)[nH]c3c2)c1 [Compound 10, 6-(3-Cyanophenyl)-N-(piperidin-4-ylmethyl)-1H-indole-2-carboxamide hydrochloride] | 2.1 | 0 | 0.009 |  |  |  | 
2 | > 50 | did not inhibit | 54 | 44 | inactive | > 50 | did not inhibit | > 50 | > 50 | > 50 | > 50 | Cl.NC(=O)c1ccc(-c2ccc3cc(C(=O)NCC4CCNCC4)sc3c2)cc1 [Compound 37, 6-(4-(Carbamoyl)phenyl)-N-(piperidin-4-ylmethyl)-benzo[b]thiophene-2-carboxamide hydrochloride] |  | 0 |  | not and did not significantly affect the expression | None of these three compounds inhibited tumor cell proliferation | did not significantly affect the AF9 AHD levels; also recorded: did not significantly affect the binding | > 50
3 | 2.6 ± 0.3 |  | 62 | 4 |  | 2.1 ± 0.3 |  | 9.6 ± 1.2 | 4.7 ± 0.3 | 10 ± 1.8 | 50 | Cl.O=C(NCC1CCNCC1)c1cc2ccc(-c3ccc(N4CCCCC4)cc3)cc2s1 [Compound 24, 6-(4-(Piperidin-1-yl)phenyl)-N-(piperidin-4-ylmethyl)-benzo[b]thiophene-2-carboxamide hydrochloride] | 1.6 ± 0.2 |  |  | inhibited expression; also recorded: able to reduce the expression |  | significantly reduced the amounts of AF9 AHD; also recorded: dose-dependently reduce AF9 AHD | 5.3 ± 1.1
